Test results taken from US20100120858A1, “Piperidine Derivatives” (Pfizer Inc., priority 2006, published 2010).
pKi: −log10 of the molar value. Where a name gives a salt, the structure may show the parent alone.

Tests used:
[1] = molecular target: human serotonin transporter (Homo sapiens, UniProt P31645); assay: Human serotonin (hSERT) receptor binding, [125I]-RTI-55; settings: membranes of HEK-293 cells transfected with human serotonin transporter cDNA, IC50 converted by Cheng-Prusoff
How it was run: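 Membranes from HEK-293 cells expressing human SERT were incubated 90 min at room temperature in Krebs-HEPES buffer pH 7.4 with […] [125I]-RTI-55 and compound (10^−5 to 10^−12 M), in duplicate. Nonspecific binding defined with 10 μM citalopram; IC50 converted to Ki by Cheng-Prusoff.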

[2] = molecular target: human norepinephrine transporter (Homo sapiens, UniProt P23975); assay: Human norepinephrine (hNET) receptor binding, [125I]-RTI-55; settings: membranes of HEK-293 cells transfected with human norepinephrine transporter cDNA; 50 pM [125I]-RTI-55; IC50 converted by Cheng-Prusoff
human norepinephrine transporter, sequence (P23975 whole entry): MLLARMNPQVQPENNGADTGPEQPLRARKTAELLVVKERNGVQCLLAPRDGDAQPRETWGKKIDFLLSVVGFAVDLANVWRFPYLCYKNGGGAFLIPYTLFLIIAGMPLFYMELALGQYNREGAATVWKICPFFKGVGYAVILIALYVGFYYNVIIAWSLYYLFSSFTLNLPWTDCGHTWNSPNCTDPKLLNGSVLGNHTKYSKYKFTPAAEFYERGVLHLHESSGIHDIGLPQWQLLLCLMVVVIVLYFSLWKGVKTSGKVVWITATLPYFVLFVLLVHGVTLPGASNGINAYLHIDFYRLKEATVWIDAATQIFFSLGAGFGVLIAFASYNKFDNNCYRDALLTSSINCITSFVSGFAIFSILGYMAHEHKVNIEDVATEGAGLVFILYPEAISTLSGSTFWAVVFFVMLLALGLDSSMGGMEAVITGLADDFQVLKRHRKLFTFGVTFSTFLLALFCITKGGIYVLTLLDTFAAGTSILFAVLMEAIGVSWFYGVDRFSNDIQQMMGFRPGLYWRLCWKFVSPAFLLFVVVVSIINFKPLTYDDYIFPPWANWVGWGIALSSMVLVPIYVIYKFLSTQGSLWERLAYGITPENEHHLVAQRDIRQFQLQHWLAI
How it was run: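 Membranes from HEK-293 cells expressing human NET, incubated 90 min at room temperature with 50 pM [125I]-RTI-55 and compound (10^−5 to 10^−12 M) in Krebs-HEPES pH 7.4. Nonspecific binding defined with 10 μM desipramine; filter-bound counts gave IC50, converted to Ki by Cheng-Prusoff.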

[3] = tested on: capsaicin-induced mechanical allodynia; assay: Capsaicin-induced mechanical allodynia rat model; type: in vivo; settings: sc, male Sprague-Dawley rats, single subcutaneous 10 mg/kg dose on Day 7, measurement 1 hour post dose, mean of eight animals
Procedure: On Day 0, male Sprague-Dawley rats (about 150 g each) in the dark cycle were placed in suspended wire-bottom cages and allowed to acclimate for 0.5 hour in a darkened, quiet room. The Day 0 paw withdrawal threshold (PWT) was determined on the left hind paw by Von Frey hair assessment using the Dixon up and down method. After assessment, the plantar muscle of the right hind paw was injected with 100 μL of capsaicin (0.25% weight/volume (w/v) in 10% ethanol, 10% Tween 80, in sterile saline).
On Day 6, the PWT of the left hind paw (contralateral from the injected paw) was determined for each animal. Animals on Day 6 with PWT≦11.7 g were considered allodynic responders and were regrouped so that the animals in each cage had similar mean PWT values.
On Day 7, the responders were dosed subcutaneously with 10 mg of the test compound per kg of rat body weight in vehicle, or were administered vehicle (10 mL/kg) alone. The vehicle was phosphate buffered saline containing 2% CREMOPHOR® EL (BASF). The contralateral (i.e., left hind paw) PWT values were determined at 1 hour after the single dose, with the investigator blinded to the dosing scheme. For each animal, the Day 6 PWT value was subtracted from the Day 7, 1 hour PWT value for the 10 mg/kg doses of test compound to give a delta PWT value (Delta PWT (drug)), which represents the change in PWT due to the 1 hour drug treatment. In the case of vehicle-alone treated animals, the Day 6 PWT value was subtracted from the Day 7, 1 hour PWT for the 10 mL/kg doses of vehicle and the values averaged (mean Delta PWT (vehicle)). In addition, the Day 6 PWT was subtracted from the Day 0 PWT to give the baseline level (Baseline) of allodynia present in each animal. Percent inhibition of allodynia of each animal, normalized for vehicle controls, was determined using the following formula: […]

human serotonin transporter, sequence (P31645 whole entry): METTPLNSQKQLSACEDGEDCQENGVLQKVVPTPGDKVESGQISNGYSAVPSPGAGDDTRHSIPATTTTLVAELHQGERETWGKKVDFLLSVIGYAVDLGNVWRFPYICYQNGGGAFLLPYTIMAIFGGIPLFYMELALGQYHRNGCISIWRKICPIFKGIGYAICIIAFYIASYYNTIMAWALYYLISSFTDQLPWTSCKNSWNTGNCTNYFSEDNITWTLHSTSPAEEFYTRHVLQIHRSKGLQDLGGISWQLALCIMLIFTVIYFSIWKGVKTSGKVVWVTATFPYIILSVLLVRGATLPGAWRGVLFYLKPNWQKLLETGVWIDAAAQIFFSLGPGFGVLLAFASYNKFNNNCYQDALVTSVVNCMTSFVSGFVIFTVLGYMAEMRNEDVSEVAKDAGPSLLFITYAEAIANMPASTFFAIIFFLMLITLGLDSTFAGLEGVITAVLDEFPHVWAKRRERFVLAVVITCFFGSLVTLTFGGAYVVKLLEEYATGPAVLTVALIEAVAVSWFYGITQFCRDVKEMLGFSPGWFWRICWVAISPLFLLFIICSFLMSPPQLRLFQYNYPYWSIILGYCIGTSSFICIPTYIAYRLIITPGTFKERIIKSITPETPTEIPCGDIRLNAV

Row | SMILES | pKi [1] | pKi [2] | melting point | inhibition in vivo at 10 mg/kg [3]
1 | COc1cc(C)ccc1Oc1nc(C)ccc1OC[C@H]1CCCNC1 [Example 4, (S)-2-(2-methoxy-4-methyl-phenoxy)-6-methyl-3-(piperidin-3-ylmethoxy)-pyridine fumaric acid] | 6.77 | 8.13 |  | 43%
2 | COc1ccc(Oc2nc(C)ccc2OC[C@H]2CCCNC2)cc1 [Example 6, (S)-2-(4-methoxy-phenoxy)-6-methyl-3-(piperidin-3-ylmethoxy)-pyridine fumaric acid] | 6.44 | 7.80 |  | 16%
3 | CCc1ccc(Oc2nc(C)ccc2OC[C@H]2CCCNC2)c(OC)c1 [Example 11, (S)-2-(4-ethyl-2-methoxy-phenoxy)-6-methyl-3-(piperidin-3-ylmethoxy)-pyridine fumaric acid] | 6.74 | 7.74 |  | 9%
4 | CC(C)c1ccccc1Oc1ncccc1OC[C@H]1CCCNC1.O=C(O)/C=C/C(=O)O [Example 75, (S)-2-(2-isopropyl-phenoxy)-3-(piperidin-3-ylmethoxy)-pyridine fumaric acid] | < 5.00 | 6.12 | 112 to 114 °C (dec.) | 
5 | Cc1ccc(Cl)c(Oc2ncccc2OC[C@H]2CCCNC2)c1.O=C(O)/C=C/C(=O)O [Example 76, (S)-2-(2-chloro-5-methyl-phenoxy)-3-(piperidin-3-ylmethoxy)-pyridine fumaric acid] | 5.32 | 8.40 | 183 to 184 °C (dec.) | 
6 | O=C(O)/C=C/C(=O)O.c1ccc(COc2ncccc2OC[C@H]2CCCNC2)cc1 [Example 77, (S)-2-benzyloxy-3-(piperidin-3-ylmethoxy)-pyridine fumaric acid] | 5.14 | 5.21 | 165 to 167 °C (dec.) | 
7 | O=C(O)/C=C/C(=O)O.c1ccc(CCOc2ncccc2OC[C@H]2CCCNC2)cc1 [Example 82, (S)-2-phenethyloxy-3-(piperidin-3-ylmethoxy)-pyridine fumaric acid] | 5.43 | 6.68 | 146 to 148 °C (dec.) | 
8 | O=C(O)/C=C/C(=O)O.c1ccc(Oc2ncccc2OC[C@@H]2CCCNC2)cc1 [Example 94, (R)-2-phenoxy-3-(piperidin-3-ylmethoxy)-pyridine fumaric acid] | 5.33 | 6.39 | 141 to 143 °C (dec.) | 
9 | Cl.c1ccc(COc2ccccc2OC[C@H]2CCCNC2)cc1 [Example 99, (S)-3-(2-benzyloxy-phenoxymethyl)-piperidine hydrochloride] | 5.32 | 7.96 | 137 to 140 °C (dec.) | 
10 | Cl.c1ccc(OC2CCCCC2)c(OC[C@H]2CCCNC2)c1 [Example 101, (S)-3-(2-cyclohexyloxy-phenoxymethyl)-piperidine hydrochloride] | < 5.01 | 7.70 | 149 to 150 °C | 
11 | CC(C)COc1ccccc1OCC1CCCNC1.Cl (stereo not drawn) [Example 102, 3-(2-isobutoxy-phenoxymethyl)-piperidine hydrochloride] | 5.40 | 7.49 | 162 °C | 

The next compounds have a higher pKi [1] than those just listed; values first:

Row | pKi [1] | pKi [2] | melting point | SMILES | inhibition in vivo at 10 mg/kg [3]
12 | 6.80 | 7.99 |  | Cc1ccc(Oc2nc(C)ccc2OC[C@H]2CCCNC2)cc1 [Example 8, (S)-2-(4-methyl-phenoxy)-6-methyl-3-(piperidin-3-ylmethoxy)-pyridine fumaric acid] | 22%
13 | 6.89 | 8.28 |  | Cc1ccc(OC[C@H]2CCCNC2)c(Oc2cc(F)c(F)cc2F)n1 [Example 29, (S)-6-methyl-2-(2,4,5-trifluoro-phenoxy)-3-(piperidin-3-ylmethoxy)-pyridine fumaric acid] | 11%
14 | 6.92 | 8.06 |  | COc1cc(Cl)ccc1Oc1nc(C)ccc1OC[C@H]1CCCNC1 [Example 12, (S)-2-(4-chloro-2-methoxy-phenoxy)-6-methyl-3-(piperidin-3-ylmethoxy)-pyridine fumaric acid] | 88%
15 | 7.09 | 8.32 |  | Cc1ccc(OC[C@H]2CCCNC2)c(Oc2c(F)cc(F)cc2F)n1 [Example 44, (S)-6-methyl-2-(2,4,6-trifluoro-phenoxy)-3-(piperidin-3-ylmethoxy)-pyridine hydrochloride] | 18%
16 | 7.14 | 8.48 |  | Cc1ccc(OC[C@H]2CCCNC2)c(Oc2ccc(F)cc2F)n1 [Example 25, (S)-2-(2,4-difluoro-phenoxy)-6-methyl-3-(piperidin-3-ylmethoxy)-pyridine fumaric acid] | 77%
17 | 7.40 | 8.55 |  | Cc1ccc(Oc2nc(C)ccc2OC[C@H]2CCCNC2)c(Cl)c1 [Example 14, (S)-2-(2-chloro-4-methyl-phenoxy)-6-methyl-3-(piperidin-3-ylmethoxy)-pyridine fumaric acid] | 48%
18 | 7.54 | 8.08 |  | Cc1ccc(OC[C@H]2CCCNC2)c(Oc2c(F)cc(Cl)cc2F)n1 [Example 45, (S)-2-(4-chloro-2,6-difluoro-phenoxy)-6-methyl-3-(piperidin-3-ylmethoxy)-pyridine hydrochloride] | 1%
19 | 7.55 | 8.28 |  | Cc1ccc(OC[C@H]2CCCNC2)c(Oc2ccc(Cl)cc2F)n1 [Example 23, (S)-2-(4-chloro-2-fluoro-phenoxy)-6-methyl-3-(piperidin-3-ylmethoxy)-pyridine fumaric acid] | 65%
20 | 8.00 | 6.68 | 141 to 142 °C (dec.) | O=C(O)/C=C/C(=O)O.c1ccc(CCCOc2ncccc2OC[C@H]2CCCNC2)cc1 [Example 83, (S)-2-(3-phenyl-propoxy)-3-(piperidin-3-ylmethoxy)-pyridine fumaric acid] | 
